Earlier results, collected in patent publication US20110130355A1, “USE OF SOPHORICOSIDE IN THE MANUFACTURE OF MEDICAMENTS” (priority 2008, published 2011).
Where two headings read alike, the source gives them in different places.

Experiments:
[1] = tested on: rabbit articular chondrocytes; settings: cited from earlier work
[2] = tested on: femoral-metaphyseal tissues; settings: in vitro, tissues from aging female rats; cited from earlier work
ovariectomized rats = settings: cited from earlier work

| Compound | degradation of proteoglycan induced by interleukin (IL) 1β ([1]; high concentration, 10 nmol/l) | degradation of proteoglycan induced by interleukin (IL) 1β ([1]; low concentration, 0.1 nmol/l) | contents of alkaline phosphatase, DNA and calcium in the femoral-metaphyseal tissues [2] | loss of bone mass (ovariectomized rats) |
| --- | --- | --- | --- | --- |
| C[C@]12CC[C@@H]3c4ccc(O)cc4CC[C@H]3[C@@H]1CC[C@@H]2O [17β-estradiol] | increased its effect | inhibited the degradation of proteoglycan induced by interleukin (IL) 1β |  |  |
| O=c1c(-c2ccc(O)cc2)coc2cc(O)cc(O)c12 [genistein] |  |  | substantially increases |  |
| O=c1c(-c2ccc(O)cc2)coc2cc(O[C@@H]3O[C@H](CO)[C@@H](O)[C@H](O)[C@H]3O)cc(O)c12 [genistin, genistein-7-O-glucopyranoside] |  |  | substantially increases | prevent loss of bone mass |
